In PubChem BioAssay AID1963961 (Molecular Pharmacology Branch, DTP, NCI, 2024):

Tested on: K98450-129-R-PDC multicell spheroids, viability
Assay: Anticancer human tumor K98450-129-R-PDC patient-derived colon adenocarcinoma cell line growth inhibition [PI3K]
Conditions: for IC50: curve of first compound; for viability, T/C: stronger effect = lower value
Summary of the method: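 Complex 3D spheroids (cancer cells + endothelial HUVEC + mesenchymal stem cells); drug pairs of targeted agent x inavolisib/alpelisib/duvelisib/copanlisib; half-log series from ~Cmax, max 10 microM if Cmax unknown; endpoint viability.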

[1] = second compound 0.0316 µM, first compound 0.0316 µM
[2] = second compound 0.0316 µM, first compound 0.1 µM
[3] = second compound 0.0316 µM, first compound 0.316 µM
[4] = second compound 0.0316 µM, first compound 1 µM
[5] = second compound 0.0316 µM, first compound 3.16 µM
[6] = second compound 0.0316 µM, first compound 10 µM
[7] = second compound 0.1 µM, first compound 0.0316 µM
[8] = second compound 0.1 µM, first compound 0.1 µM
[9] = second compound 0.1 µM, first compound 0.316 µM
[10] = second compound 0.1 µM, first compound 1 µM
[11] = second compound 0.1 µM, first compound 3.16 µM
[12] = second compound 0.1 µM, first compound 10 µM
[13] = second compound 0.316 µM, first compound 0.0316 µM
[14] = second compound 0.316 µM, first compound 0.1 µM
[15] = second compound 0.316 µM, first compound 0.316 µM
[16] = second compound 0.316 µM, first compound 1 µM
[17] = second compound 0.316 µM, first compound 3.16 µM
[18] = second compound 0.316 µM, first compound 10 µM
[19] = second compound 1 µM, first compound 0.0316 µM
[20] = second compound 1 µM, first compound 0.1 µM
[21] = second compound 1 µM, first compound 0.316 µM
[22] = second compound 1 µM, first compound 1 µM
[23] = second compound 1 µM, first compound 3.16 µM
[24] = second compound 1 µM, first compound 10 µM
[25] = second compound 0.00316 µM, first compound 0.0316 µM
[26] = second compound 0.00316 µM, first compound 0.1 µM
[27] = second compound 0.00316 µM, first compound 0.316 µM
[28] = second compound 0.00316 µM, first compound 1 µM
[29] = second compound 0.00316 µM, first compound 3.16 µM
[30] = second compound 0.00316 µM, first compound 10 µM
[31] = second compound 0.01 µM, first compound 0.0316 µM
[32] = second compound 0.01 µM, first compound 0.1 µM
[33] = second compound 0.01 µM, first compound 0.316 µM
[34] = second compound 0.01 µM, first compound 1 µM
[35] = second compound 0.01 µM, first compound 3.16 µM
[36] = second compound 0.01 µM, first compound 10 µM
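Note: spheroids exposed to agents for seven days before read-out.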

With C=CC(=O)N1CCN(c2nc(=O)n(-c3c(C)ccnc3C(C)C)c3nc(-c4c(O)cccc4F)c(F)cc23)C(C)C1 (stereo unspecified) + Cc1nc(NC(=O)N2CCCC2C(N)=O)sc1-c1ccnc(C(C)(C)C(F)(F)F)c1 the IC50 (second compound 0.0316 µM) was 4.01 µM, the IC50 (second compound 0.1 µM) was 3.48 µM and the IC50 (second compound 0.316 µM) was 2.63 µM. For the same molecule, the IC50 (second compound 1 µM) was 1.91 µM, the IC50 (second compound 3.16 µM) was 1.33 µM and the IC50 (second compound 10 µM) was 0.502 µM. For the same molecule, the viability, T/C [1] was 111%, the viability, T/C [2] was 102% and the viability, T/C [3] was 97.3%. For the same molecule, the viability, T/C [4] was 84.5%, the viability, T/C [5] was 52.8% and the viability, T/C [6] was 33.1%. It also gave a viability, T/C [7] of 102%, a viability, T/C [8] of 94% and a viability, T/C [9] of 96.8%. For the same molecule, the viability, T/C [10] was 77.7%, the viability, T/C [11] was 52.4% and the viability, T/C [12] was 28.2%. The viability, T/C [13] was 102%, the viability, T/C [14] was 106% and the viability, T/C [15] was 93.6%. It also gave a viability, T/C [16] of 78.7%, a viability, T/C [17] of 44% and a viability, T/C [18] of 26.8%. It also gave a viability, T/C [19] of 90.5%, a viability, T/C [20] of 92.7% and a viability, T/C [21] of 84.4%. It also gave a viability, T/C [22] of 69%, a viability, T/C [23] of 35.4% and a viability, T/C [24] of 22.7%. It also gave a viability, T/C (second compound 3.16 µM, first compound 0.0316 µM) of 83.7%, a viability, T/C (second compound 3.16 µM, first compound 0.1 µM) of 85% and a viability, T/C (second compound 3.16 µM, first compound 0.316 µM) of 86.5%. The viability, T/C (second compound 3.16 µM, first compound 1 µM) was 55.7%, the viability, T/C (second compound 3.16 µM, first compound 3.16 µM) was 29.1% and the viability, T/C (second compound 3.16 µM, first compound 10 µM) was 17.6%. For the same molecule, the viability, T/C (second compound 10 µM, first compound 0.0316 µM) was 73.9%, the viability, T/C (second compound 10 µM, first compound 0.1 µM) was 79.3% and the viability, T/C (second compound 10 µM, first compound 0.316 µM) was 61.6%. The viability, T/C (second compound 10 µM, first compound 1 µM) was 31.1%, the viability, T/C (second compound 10 µM, first compound 3.16 µM) was 12.9% and the viability, T/C (second compound 10 µM, first compound 10 µM) was 8.56%.
For CC(C)NCC(C(=O)N1CCN(c2ncnc3c2C(C)CC3O)CC1)c1ccc(Cl)cc1 (stereo unspecified) + CC(Nc1ccc2c(c1)OCCn1cc(N3C(=O)OCC3C(F)F)nc1-2)C(N)=O, the IC50 (second compound 0.00316 µM) was > 10 µM, the IC50 (second compound 0.01 µM) was > 10 µM and the IC50 (second compound 0.0316 µM) was > 10 µM. For the same molecule, the IC50 (second compound 0.1 µM) was > 10 µM, the IC50 (second compound 0.316 µM) was > 10 µM and the IC50 (second compound 1 µM) was > 10 µM. The viability, T/C [25] was 111%, the viability, T/C [26] was 98% and the viability, T/C [27] was 101%. The viability, T/C [28] was 101%, the viability, T/C [29] was 109% and the viability, T/C [30] was 98.4%. For the same molecule, the viability, T/C [31] was 115%, the viability, T/C [32] was 96.1% and the viability, T/C [33] was 105%. For the same molecule, the viability, T/C [34] was 98.1%, the viability, T/C [35] was 104% and the viability, T/C [36] was 102%. For the same molecule, the viability, T/C [1] was 109%, the viability, T/C [2] was 104% and the viability, T/C [3] was 98.9%. For the same molecule, the viability, T/C [4] was 101%, the viability, T/C [5] was 109% and the viability, T/C [6] was 96.9%. It also gave a viability, T/C [7] of 96.2%, a viability, T/C [8] of 91.7% and a viability, T/C [9] of 101%. The viability, T/C [10] was 102%, the viability, T/C [11] was 101% and the viability, T/C [12] was 96.2%. It also gave a viability, T/C [13] of 91%, a viability, T/C [14] of 90.5% and a viability, T/C [15] of 100%. It also gave a viability, T/C [16] of 99.2%, a viability, T/C [17] of 111% and a viability, T/C [18] of 94.2%. The viability, T/C [19] was 85.2%, the viability, T/C [20] was 85.4% and the viability, T/C [21] was 96.8%. The viability, T/C [22] was 94.1%, the viability, T/C [23] was 100% and the viability, T/C [24] was 95.2%.
For CCCS(=O)(=O)Nc1ccc(F)c(C(=O)c2c[nH]c3ncc(-c4ccc(Cl)cc4)cc23)c1F + CC(Nc1ccc2c(c1)OCCn1cc(N3C(=O)OCC3C(F)F)nc1-2)C(N)=O, the IC50 (second compound 0.00316 µM) was 6.63 µM, the IC50 (second compound 0.01 µM) was 6.48 µM and the IC50 (second compound 0.0316 µM) was 6.29 µM. The IC50 (second compound 0.1 µM) was 6.2 µM, the IC50 (second compound 0.316 µM) was 5.98 µM and the IC50 (second compound 1 µM) was 5.78 µM. For the same molecule, the viability, T/C [25] was 113%, the viability, T/C [26] was 104% and the viability, T/C [27] was 112%. For the same molecule, the viability, T/C [28] was 111%, the viability, T/C [29] was 135% and the viability, T/C [30] was 14.1%. For the same molecule, the viability, T/C [31] was 117%, the viability, T/C [32] was 110% and the viability, T/C [33] was 114%. The viability, T/C [34] was 105%, the viability, T/C [35] was 148% and the viability, T/C [36] was 8.38%. It also gave a viability, T/C [1] of 97%, a viability, T/C [2] of 105% and a viability, T/C [3] of 100%. The viability, T/C [4] was 105%, the viability, T/C [5] was 136% and the viability, T/C [6] was 10.4%. It also gave a viability, T/C [7] of 96.5%, a viability, T/C [8] of 102% and a viability, T/C [9] of 97.9%. The viability, T/C [10] was 101%, the viability, T/C [11] was 130% and the viability, T/C [12] was 10.7%. The viability, T/C [13] was 90.6%, the viability, T/C [14] was 93.7% and the viability, T/C [15] was 98.5%. It also gave a viability, T/C [16] of 98.4%, a viability, T/C [17] of 113% and a viability, T/C [18] of 10.5%. For the same molecule, the viability, T/C [19] was 88.3%, the viability, T/C [20] was 88.8% and the viability, T/C [21] was 91.4%. For the same molecule, the viability, T/C [22] was 97%, the viability, T/C [23] was 91.2% and the viability, T/C [24] was 12.5%.
